Source: the Deep4Chem optical property database
Values belong to the molecule of their own block, whether it stands above or below them.

Test: solvent given as SMILES

SMILES: c1ccc(-c2nn(-c3ccccc3)c3nc4ccc(-n5c6ccccc6c6ccccc65)cc4cc23)cc1
absorption maximum (in C1CCCCC1): 419.11 nm | absorption maximum (in C1CCOC1): 414.94 nm | absorption maximum (in CC#N): 411.02 nm | absorption maximum (in CC(C)=O): 412.03 nm | absorption maximum (in CCCCCl): 415.97 nm | absorption maximum (in CCCCOCCCC): 418.06 nm | absorption maximum (in CN(C)C=O): 414.94 nm

SMILES: O=S(=O)([O-])c1ccc2c(O)cc(S(=O)(=O)[O-])cc2c1
absorption maximum (in O): 295 nm

SMILES: COc1cc(Br)cc2cc(-c3cc4cc(Br)cc(OC)c4oc3=O)oc12
absorption maximum (in CC#N): 353 nm | absorption maximum (in CCOC(C)=O): 355 nm | absorption maximum (in CS(C)=O): 359 nm | absorption maximum (in Cc1ccccc1): 360 nm | absorption maximum (in O): 359 nm

SMILES: CCN(CC)c1ccc2c(C#N)c(/C=C(\C#N)c3nc4ccccc4s3)c(=O)oc2c1
absorption maximum (in C1COCCO1): 561 nm | absorption maximum (in CC#N): 597 nm | absorption maximum (in CCO): 602 nm | absorption maximum (in CCOC(C)=O): 568 nm | absorption maximum (in CN(C)C=O): 525 nm | absorption maximum (in CO): 591 nm | absorption maximum (in CS(C)=O): 531 nm | absorption maximum (in Cc1ccccc1): 560 nm | absorption maximum (in ClCCl): 611 nm

SMILES: CCCCN1C(=S)c2cccc3c(N(C)C)ccc(c23)C1=S
absorption maximum (in CC#N): 571 nm | absorption maximum (in CS(C)=O): 588 nm | absorption maximum (in Cc1ccccc1): 536 nm

SMILES: CCCCOC(=O)c1cc(Cl)c2c3c(Cl)cc4c5c(cc(Cl)c(c6c(Cl)cc(C(=O)OCCCC)c1c26)c53)C(=O)N(c1c(C(C)C)cccc1C(C)C)C4=O
absorption maximum (in Cc1ccccc1): 496 nm

SMILES: CCN(CC)c1ccc2c(-c3ccc(S(=O)(=O)[O-])cc3S(=O)(=O)[O-])c3ccc(=[N+](CC)CC)cc-3oc2c1
absorption maximum (in CC#N): 548 nm | absorption maximum (in CCO): 552 nm | absorption maximum (in CN(C)C=O): 552 nm | absorption maximum (in O): 562 nm

SMILES: COc1ccc2c(CC(=O)NN)coc2c1
absorption maximum (in C1CCOC1): 290 nm | absorption maximum (in CC#N): 290 nm | absorption maximum (in CC(C)=O): 298 nm | absorption maximum (in CCCCO): 278 nm | absorption maximum (in CCCO): 289 nm | absorption maximum (in CCO): 291 nm | absorption maximum (in CCOC(C)=O): 300 nm | absorption maximum (in CN(C)C=O): 288 nm | absorption maximum (in CO): 290 nm | absorption maximum (in ClCCl): 287 nm

SMILES: CN(C)c1ccc(C2=Cc3ccc4ccccc4[n+]3[B-](F)(F)O2)cc1
absorption maximum (in C1CCOC1): 472 nm | absorption maximum (in C1COCCO1): 472 nm | absorption maximum (in CC1CCCCC1): 473 nm | absorption maximum (in CC#N): 468 nm | absorption maximum (in CCOC(C)=O): 468 nm | absorption maximum (in CCOCC): 467 nm | absorption maximum (in CN(C)C=O): 474 nm | absorption maximum (in CO): 468 nm | absorption maximum (in COC(C)=O): 468 nm | absorption maximum (in ClC(Cl)Cl): 477 nm

SMILES: CCOC(=O)CN1C(=O)C2=C(c3ccc(C#N)cc3)N(CC(=O)OCC)C(=O)C2=C1c1ccc(C#N)cc1
absorption maximum (in CC#N): 473 nm | absorption maximum (in CS(C)=O): 480 nm | absorption maximum (in Cc1ccccc1): 482 nm

SMILES: CCCCCCOc1ccc(-c2ccc(/C=C/c3cc(/C=C/c4ccc(-c5ccc(OCCCCCC)cc5)cc4)ncn3)cc2)cc1
absorption maximum (in ClCCl): 373 nm

SMILES: CC(C)(C)c1ccc2c(c1)c1cc(C(C)(C)C)ccc1n2-c1ccc(C#Cc2ccc3c4ccc(C#Cc5ccc(/C=C(/C#N)C(=O)O)cc5)cc4n(-c4ccc(C(F)(F)F)cc4)c3c2)cc1
absorption maximum (in ClCCl): 386 nm

SMILES: COc1ccc(C2=C3C(/C=C/c4cc(OC)c(OC)c(OC)c4)=C(C=O)C(C)=[N+]3[B-](F)(F)n3c(/C=C/c4cc(OC)c(OC)c(OC)c4)c(C=O)c(C=Cc4cc(OC)c(OC)c(OC)c4)c32)cc1
absorption maximum (in ClCCl): 634 nm

SMILES: COc1ccc(-c2nc(-c3ccccc3)c(N(C)C)[se]2)cc1
absorption maximum (in ClC(Cl)Cl): 339 nm

SMILES: COCCC1=Cc2nc1ccc1[nH]c(cc1CCOC)c1nc(ccc3[nH]c2cc3CCOC)C(CCOC)=C1
absorption maximum (in Cc1ccccc1): 638 nm

SMILES: CCCC1(CCC)c2cc(-c3ccc(C(C)(C)C)cc3)ccc2-c2ccc(-c3ccc4c(c3)C(CCC)(CCC)c3cc(-c5ccc6c(c5)C(CCC)(CCC)c5cc(-c7ccc(C(C)(C)C)cc7)ccc5-6)ccc3-4)cc21
absorption maximum (in C1CCCCC1): 362 nm

SMILES: FC(F)(F)C(F)(F)C(F)(F)C1=NC2=C(Sc3ccccc3)C=C3c4cc(Sc5ccccc5)c5nc(C(F)(F)C(F)(F)C(F)(F)F)nc6c(Sc7ccccc7)cc(c4c56)=C4C=C(Sc5ccccc5)C(=N1)C2C34 (stereo not given)
absorption maximum (in C1CCOC1): 565 nm

SMILES: C1=C(c2ccccc2)C2=Nc3c(-c4ccccc4)cc4n3[B-]3(Oc5ccccc5C1=[N+]23)Oc1ccccc1-4 (stereo not given)
absorption maximum (in Cc1ccccc1): 728 nm

SMILES: CCN(CC)c1ccc(/C=C/C(=O)c2c(O)cc(C)oc2=O)cc1
absorption maximum (in CC#N): 476 nm | absorption maximum (in CCCO): 468 nm | absorption maximum (in CCO): 488 nm | absorption maximum (in CCOC(C)=O): 472 nm | absorption maximum (in Cc1ccccc1): 471 nm | absorption maximum (in ClCCl): 480 nm

SMILES: Cc1cc(C)c(-c2nnc(-c3ccc(-n4c5ccccc5c5ccccc54)c(C)c3)o2)c(C)c1
absorption maximum (in Cc1ccccc1): 339 nm

SMILES: Cc1ccccc1[B-]1(c2ccccc2C)n2nc(C(F)(F)F)cc2-c2c3ccccc3cc[n+]21
absorption maximum (in C1CCCCC1): 374 nm | absorption maximum (in Cc1ccccc1): 380 nm | absorption maximum (in ClCCl): 374 nm

SMILES: COCCOCCOCCOCCOc1ccc(OCCOCCOCCOCCOC)c(C=O)c1
absorption maximum (in CC(C)(C)O): 350 nm | absorption maximum (in CC(C)CO): 350 nm | absorption maximum (in CC(C)O): 349 nm | absorption maximum (in CCCCO): 349 nm | absorption maximum (in CCCO): 349 nm | absorption maximum (in CCO): 349 nm | absorption maximum (in CN(C)C=O): 350 nm | absorption maximum (in CNC=O): 349 nm | absorption maximum (in CO): 349 nm | absorption maximum (in NC=O): 352 nm | absorption maximum (in O): 351 nm

SMILES: CCCC(=O)c1c2c(c(C(=O)CCC)c3c1OC(CC(=O)OC)(C(=O)OC)O3)OCO2
absorption maximum (in CC#N): 423 nm | absorption maximum (in CCCCCC): 413 nm | absorption maximum (in CCO): 428 nm | absorption maximum (in CO): 428 nm | absorption maximum (in ClCCl): 425 nm

SMILES: CC(C)(C)c1ccc(Oc2cc3c4c(cc(Oc5ccc(C(C)(C)C)cc5)c5c6c(Oc7ccc(C(C)(C)C)cc7)cc7c8c(cc(Oc9ccc(C(C)(C)C)cc9)c(c2c45)c86)C(=O)N(c2ccccc2)C7=O)C(=O)N(c2ccccc2)C3=O)cc1
absorption maximum (in ClC(Cl)Cl): 586 nm

The remaining lines, values ahead:

absorption maximum (in CC#N): 300 nm
SMILES: O=c1ccc2ccc(C#Cc3ccccc3)cc2o1

absorption maximum (in C1COCCO1): 444 nm | absorption maximum (in CC#N): 442 nm | absorption maximum (in CCCCOCCCC): 443 nm | absorption maximum (in CCOC(C)=O): 442 nm
SMILES: Clc1nc(Nc2ccccc2)nc(Nc2ccc3c4cccc5cccc(c6cccc2c63)c54)n1

absorption maximum (in ClCCl): 388 nm
SMILES: FC(F)(F)c1ccc(B2c3ccccc3Nc3ccccc32)c(C(F)(F)F)c1

absorption maximum (in CCO): 388 nm | absorption maximum (in ClC(Cl)Cl): 403 nm
SMILES: CCOc1ccc2c(-c3nc(-c4cccc(Br)c4)no3)cc(=O)oc2c1

absorption maximum (in C1CCOC1): 307 nm | absorption maximum (in CC(C)O): 303 nm | absorption maximum (in CO): 303 nm | absorption maximum (in CS(C)=O): 306 nm | absorption maximum (in ClC(Cl)Cl): 310 nm | absorption maximum (in ClCCl): 309 nm
SMILES: Cc1ccc(-n2c(-c3ccccc3O)nc(-c3ccccc3O)c2-c2ccccc2O)cc1

absorption maximum (in CC#N): 406 nm | absorption maximum (in ClCCl): 416 nm
SMILES: COc1ccc(-c2cc3c(s2)c(C(=O)c2ccccc2)cc(=O)n3Cc2ccccc2)cc1

absorption maximum (in C1CCCCC1): 324 nm | absorption maximum (in CC#N): 323 nm | absorption maximum (in CCO): 323 nm | absorption maximum (in ClCCl): 325 nm
SMILES: [BH3-][P+]1(c2ccccc2)c2ccccc2-c2sc3ccccc3c21 (stereo not given)

absorption maximum (in C1COCCO1): 401 nm
SMILES: COC(=O)c1ccc(/C=C2\C=C(c3ccccc3)OC2=O)cc1

absorption maximum (in ClC(Cl)Cl): 350 nm
SMILES: N#Cc1c(C#N)c2cc(Br)ccc2c2ccc(Br)cc12

absorption maximum (in c1ccccc1): 364 nm
SMILES: Cc1nc2c(ccc3ccccc32)oc1=O

absorption maximum (in CC#N): 742 nm | absorption maximum (in CCO): 728 nm | absorption maximum (in CO): 730 nm | absorption maximum (in ClC(Cl)Cl): 746 nm
SMILES: C[N+]1=C(/C=C/C2=C3Oc4c(cc5c6c4CCCN6CCC5)C(c4ccccc4C(=O)O)=C3CCC2)C(C)(C)c2c1ccc1ccccc21

absorption maximum (in ClCCl): 364 nm
SMILES: Cc1cc(-c2nc3c4ccccc4c4ccccc4c3n2-c2ccc(C(C)(C)C)cc2)ccc1-c1ccc(-c2c(-c3ccccc3)nc3ccccn23)cc1

absorption maximum (in ClCCl): 366 nm
SMILES: CN(C)c1cc(-c2ccc(C#Cc3cc[n+](C)cc3)cc2)cc2ccccc12

absorption maximum (in ClCCl): 410 nm
SMILES: CC(C)(C)c1ccc(C#Cc2cc3ccc4cc(C#Cc5ccc(C(C)(C)C)cc5)cc5ccc(c2)c3c45)cc1

absorption maximum (in ClCCl): 387 nm
SMILES: O=P1(c2ccccc2)C(c2ccc(C(F)(F)F)cc2)=Cc2cc3ccccc3cc21 (stereo not given)

absorption maximum (in ClCCl): 439 nm
SMILES: c1ccc(-c2cc3cc4cccc5c(-c6ccccc6)cc6cc7cccc2c7c3c6c45)cc1

absorption maximum (in ClC(Cl)Cl): 328 nm
SMILES: C(#Cc1ccc(C#Cc2ccccc2)cc1)c1ccccc1

absorption maximum (in C1CCOC1): 355 nm
SMILES: O=P1(c2ccccc2)C(c2ccsc2)=C(c2ccsc2)c2ccccc21 (stereo not given)

absorption maximum (in CO): 800 nm
SMILES: CS1(C)C(/C=C/C2=C(c3ccc(C(=O)O)cc3)C(=C/C=C3/N(CCCCS(=O)(=O)[O-])c4ccccc4S3(C)C)/CCC2)=[N+](CCCCS(=O)(=O)[O-])c2ccccc21

absorption maximum (in ClC(Cl)Cl): 437 nm
SMILES: Cc1ccc(C2=Cc3c4ccccc4c4ccccc4[n+]3[B-](F)(F)O2)cc1

absorption maximum (in CC#N): 337 nm | absorption maximum (in CCCCCCCCCCCCCCCC): 325 nm | absorption maximum (in CO): 345 nm | absorption maximum (in ClC(Cl)Cl): 336 nm | absorption maximum (in c1ccccc1): 334 nm
SMILES: O=C1c2ccccc2NC(c2ccccc2)N1Cc1ccccc1 (stereo not given)

absorption maximum (in CS(C)=O): 364 nm
SMILES: CCOC(=O)C1=C(N)n2c(=O)c3ccccc3c(=O)n2C1c1ccccc1 (stereo not given)
